In patent publication US11192849B2, “Compounds, compositions, and methods for modulating ferroptosis and treating excitotoxic disorders” (THE TRUSTEES OF COLUMBIA UNIVERSITY IN THE CITY OF NEW YORK, priority 2013, dated 2021):

What was measured:
BJeLR cells = test: Erastin-induced death and ROS in BJeLR cells; assay type: cell-based, human; settings: erastin 10 μM, 6-AN 200 μM
Method: The day before the experiment, 200,000 cells/well were seeded in 6-well dishes (Corning Inc., Corning, N.Y.). The day of the experiment, cells were treated with test compounds for the indicated times, then harvested by trypsinization, resuspended in 500 μL Hanks Balanced Salt Solution (HBSS, Gibco, Invitrogen Corp., Carlsbad, Calif.) containing either H2DCFDA (25 μM), C11-BODIPY(581/591) (2 μM) or MitoSOX (5 μM) (all from Molecular Probes, Invitrogen) and incubated for 10 minutes at 37° C. in a tissue culture incubator. Cells were then resuspended in 500 μL of fresh HBSS, strained through a […] cell strainer (BD Falcon, BD Biosciences, San Jose, Calif.), and analyzed using a flow cytometer (FACSCalibur or Accuri C6, BD Biosciences), which was equipped with 488-nm laser for excitation. Data was collected from the FL1 (H2DCFDA, C11-BODIPY) or FL2 channel (MitoSOX). A minimum of 10,000 cells were analyzed per condition.
Cell viability was typically assessed in 384-well format by Alamar Blue (Invitrogen) fluorescence (ex/em 530/590) measured on a Victor3 platereader (Perkin Elmer, Waltham, Mass.). In some experiments, Trypan Blue dye exclusion counting was performed using an automated cell counter (ViCell, Beckman-Coulter Inc., Brea, Calif.). Cell viability in test conditions is reported as a percentage relative to the negative control treatment. […]

Calu-1 cells = test: Erastin-induced ferroptosis in Calu-1 cells, NOX pathway inhibitors; assay type: cell-based, human
Method: Cell viability was typically assessed in 384-well format by Alamar Blue (Invitrogen) fluorescence (ex/em 530/590) measured on a Victor3 platereader (Perkin Elmer, Waltham, Mass.). In some experiments, Trypan Blue dye exclusion counting was performed using an automated cell counter (ViCell, Beckman-Coulter Inc., Brea, Calif.). Cell viability in test conditions is reported as a percentage relative to the negative control treatment.

[1] = system: HT-1080, BJeLR and Calu-1 cells; test: Modulatory profiling of cell death inhibitors against erastin; assay type: cell-based, human; settings: erastin 10 μM, 24 hours; 10-point, 4-fold dilution series
Method: The day before the experiment, cells were seeded in black, 384-well clear bottom plates (Corning) at a density of 1,000 cells/well using a Beckman Biomek FX Workstation. All compounds (except 3-methyladenine and chloroquine, which were diluted in water) were diluted in DMSO at 250 times the final highest test concentration, and aliquoted across a 384-well plate (Greiner, Monroe, N.C.). A ten-point, 4-fold dilution series of each inhibitor in DMSO was made using a multichannel pipette. Replicates of this mother plate were stored at −20° C. […] Medium was removed from cells and replaced with 36 μL medium containing DMSO (0.1%) or erastin (10 μM final concentration). Using the Biomek FX, 4 μL were then transferred from each inhibitor daughter plate into the DMSO-containing or erastin-containing assay plates. For 3-methyladenine and chloroquine, inhibitors were prepared fresh in media at 10-fold the final concentration in the presence of DMSO or 10 μM erastin. These solutions were manually pipetted onto cells in 384-well format. Assay plates were incubated at 37° C. for 24 hours. Viability was assessed using Alamar Blue.
The modulatory effect (Me) for drug-drug interactions was computed as follows. First, plate-based background correction was performed using Alamar Blue values from empty (cell-free) wells included on each plate. Next, within each experiment, 100% viability is determined as the average Alamar Blue score for cells treated with modulator=DMSO and lethal=DMSO, and all Alamar Blue values were scaled from 0 to 1 with the DMSO×DMSO condition=1. The individual effects of each modulator and lethal (e.g. in the presence of DMSO) at all tested doses were then ascertained. […] Next, BExp was compared to the actual observed viability. […] By default, Me in DMSO-treated cells is equal to 0. […] Me values for each inhibitor-lethal drug combination were hierarchically clustered and plotted as a heatmap using the heatmaps.2 function of the gplots library in R.

[2] = system: mouse kidney proximal tubules; test: Hydroxyquinoline + iron induced cell death in isolated mouse kidney proximal tubules (LDH release); assay type: cell-based; settings: 10 μM hydroxyquinoline and ferrous ammonium sulfate, 60 min
Method: Tubule preparation: 8-12 week old C57/BL6 female mice were euthanized with isoflurane. […] The cortices were then dissected and minced on an ice cold tile, then resuspended in additional Solution A for 8-10 min. of digestion at 37° C. followed by enrichment of proximal tubules using centrifugation on self-forming Percoll gradients as previously described for rabbit tubules.
Experimental procedures for isolated tubules: Tubules were suspended at 1.5-2.0 mg tubule protein/ml in a 95% air/5% CO2-gassed medium containing (in mM) 110 NaCl, 2.6 KCl, 25 NaHCO3, 2.4 KH2PO4, 1.25 CaCl2, 1.2 MgCl2, 1.2 MgSO4, 5 glucose, 4 sodium lactate, 0.3 alanine, 5 sodium butyrate, 2 glycine, and 1.0 mg/ml bovine gelatin (75 bloom) (Solution B). After precincubation for 15 min. at 37° C., then were then resuspended in fresh Solution B containing 2 mM heptanoic acid instead of sodium butyrate along with experimental compounds.
In addition, the efficacy of Fer-1, SRS11-92, and selected analogs was tested in a model of iron-induced cell death in freshly isolated mouse kidney proximal tubules that simulates major elements of rhabdomyolysis-induced acute kidney injury (FIG. 15C). Cell death in this model is known to involve oxidative lipid damage (Sogabe, et al., 1996, Park, et al., 2011); it was therefore believed that Fer-1 might be protective. 10 μM each of hydroxyquinoline and ferrous ammonium sulfate (HQ+Fe) were used to induce cell death, which was quantified by monitoring LDH release after 60 min. […] By implication, cell death in these models may involve, at least in part, the induction of lipid peroxidation and perhaps ferroptosis.

[3] = system: freshly isolated renal tubules; test: LDH release from hypoxic freshly isolated renal tubules; assay type: cell-based, mouse; settings: Nec-1 50 μM, with or without glycine
Method: Six to 12 mice were used for each isolated tubule preparation, depending on the amount of material needed for particular experiments. For preparation of isolated tubules, mice were anesthetized with ketamine (100 mg/kg i.p.) and xylazine (10 mg/kg i.p.), and the kidneys were immediately removed. Type I collagenase was from Worthington Biochemical. Percoll was purchased from Amersham Biosciences. All other reagents and chemicals, including delipidated BSA, were of the highest grade available from Sigma-Aldrich. […] The cortices were then dissected and minced on an ice-cold tile and then resuspended in additional solution A for 8-10 min of digestion at 37° C., followed by enrichment of proximal tubules using centrifugation on self-forming Percoll gradients. For Nec-1 studies in renal tubules, renal cortices were dissected in ice-cold dissection solution (DS) [HBSS with 10 mmol/L glucose, 5 mmol/L glycine, 1 mmol/L alanine, 15 mmol/L Hepes (pH 7.4); osmolality, 325 mOsmol/L] and sliced into 1-mm pieces. The fragments were transferred to collagenase solution (DS with 0.1% (wt/vol) type 2 collagenase and 96 μg/mL soybean trypsin inhibitor) and digested for 30 min at 37° C. and 61×g. After digestion, the supernatant was sieved through two nylon sieves: first 250-μm pore size and then 100-μm pore size. […]

HT-1080 cells = test: Inhibition of erastin (10 μM)-induced death in HT-1080 cells (Alamar Blue); assay type: cell-based, human; settings: erastin-treated HT-1080 cells
Summary of the method: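 HT-1080 cells (1,000/well) were treated next day with 10 μM erastin plus a compound dilution series for 24 h. Alamar Blue (10% final) was then added for 6 h and fluorescence read at ex/em 530/590.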

SLC7A11 = SLC7A11 mRNA levels (RT-qPCR) in HT-1080 cells; assay type: cell-based, human; settings: 6 hours
Method: RNA was extracted using the Qiashredder and Qiagen RNeasy Mini kits (Qiagen) according to the manufacturer's protocol. 2 μg total RNA for each sample was used as input for each reverse transcription reaction, performed using the TaqMan RT kit (Applied Biosystems, Life Technologies Corp., Carlsbad, Calif.). Primer pairs were designed for target transcripts using Primer Express 2.0 (Applied Biosystems). Quantitative PCR reactions were performed using the Power SYBR Green PCR Master Mix (Applied Biosystems). Triplicate samples per condition were analyzed on an Applied Biosystems 7300 qPCR instrument using absolute quantification settings. Differences in mRNA levels compared to HPRT1 or ACTB internal reference control were computed between control and experimental conditions using the ΔΔCt method.

**Q.** `NC(=O)c1ccc(N)nc1` [Compound 6-AN, 6-aminonicotinamde] was tested. Which “erastin-induced cell death and ROS production” value (BJeLR cells) did it give?
**A.** prevented cell death as well as ROS production

**Q.** What about the “suppression of erastin-induced ferroptosis” value (Calu-1 cells) of the same compound?
**A.** strongly suppressed

**Q.** What does the source list for `CN1C(=O)C(Cc2c[nH]c3ccccc23)NC1=S` (stereo not shown) [necrostatin-1]?
**A.** modulation of erastin-induced death [1]: not consistently modulated; HQ+Fe induced lethality (LDH release) [2]: did not show any protection; LDH release from hypoxic renal tubules [3]: no protection was detected

**Q.** Which results are given for `OCCS` [β-ME, β-mercaptoethanol, reference compound]?
**A.** prevention of erastin-induced death (HT-1080 cells): strongly inhibited cell death; effect on erastin/SAS-induced SLC7A11 upregulation (SLC7A11): suppressed
